Source: patent publication EP4782437A1, “HETEROARYL COMPOUND, AND PREPARATION METHOD THEREFOR AND USE THEREOF IN MEDICINE” (Jiangsu Hengrui Pharmaceuticals Co., Ltd., priority 2023, dated 2025)
Where two headings read alike, the source gives them in different places.

Experiments:
[1] = molecular target: T1, BTK recombinant human protein (Homo sapiens, UniProt Q06187); assay: Inhibitory activity against BTK (HTRF KinEASE-TK kit); assay type: biochemical
T1 construct: purchased Thermo PV3363
Method: Test example 1: Inhibitory activity of compounds of the present disclosure against BTK • I. Experimental materials and instruments • 1. BTK recombinant human protein (Thermo, PV3363) • 2. HTRF KinEASE-TK kit (Cisbio, 62TK0PEC) • 3. 1 M MgCl2 (Thermo, AM9530G) • 4. 1 M MnCl2 (Sigma, M1787-100ML) • 5. Adenosine 5'-triphosphate (ATP) (New England Biolabs, P0756L) • 6. DTT 2M (Sangon Biotech, B645939) • 7. Ultrapure water (Invitrogen, 10977-015) • 8. OptiPlate-384, white opaque 384-well microplate (PerkinElmer, 6007290) • 9. 96-well round-bottom plate (Corning, 3788) • 10. Biochemical incubator (Shanghai Boxun Medical & Biological Instruments Co., Ltd., BSP-100) • 11. 15-mL centrifuge tube (Corning) • 12. Benchtop high-speed centrifuge (Changsha Yingtai Instrument Co., Ltd., TD4N) • 13. Multifunctional microplate reader (PerkinElmer, EnVision) • 14. Bravo liquid handling platform (Agilent Technologies, SGC120TH34702) • II. Experimental procedure
The HTRF KinEASE-TK kit is designed to detect changes in BTK enzyme activity based on two technologies, i.e., fluorescence resonance energy transfer and time-resolved fluorescence. The kit is operated in two stages: 1) enzyme reaction stage: the enzyme reaction is initiated by adding ATP, where the enzyme phosphorylates the substrate, and the compounds are then added to competitively bind to BTK against ATP, thereby inhibiting substrate phosphorylation; and 2) detection stage: after the enzyme reaction is complete, a detection reagent is added to terminate the reaction. Different groups on the phosphorylated substrate bind to the energy donor and energy acceptor, respectively, bringing the two into close proximity. During the instrumental readout, the energy donor is excited by an external light source, which enables resonance energy transfer to the proximal energy acceptor. The acceptor, in turn, becomes excited and emits light at a specific wavelength. Thus, changes in enzyme activity can be detected by measuring the signal values, and the inhibition rate of the compounds against the target enzyme can be calculated, thereby evaluating the inhibitory effect of the compounds on BTK enzyme activity.
Preparation of enzyme reaction buffer: 5× Kinase Buffer was diluted 5-fold with ultrapure water, and then the stock solutions of MgCl2, MnCl2 and DTT were added. The final composition of the buffer was as follows: 1× Kinase Buffer, 10 mM MgCl2, 1 mM MnCl2, and 1 mM DTT.
(§1) Preparation of 5 × BTK working solution: The BTK (5.17 µM) stock solution was removed from -20°C storage. Given that the BTK concentration in the enzyme reaction system was 2 nM and the concentration of the 5× working solution was 10 nM, the BTK stock solution was diluted 517-fold with the enzyme reaction buffer according to the volume required for the experiment. The diluted solution was then added to the 384-well plate at 2 µL per well. The plate was placed in a plate spinner and centrifuged at 2000 rpm for 1 minute to bring the liquid to the bottom of the wells.
as §1, with “[…]. Given” for “Preparation of 5 × BTK working solution: The BTK (5.17 µM) stock solution was removed from -20°C storage. Given”, “the SEB” for “the BTK”, “was 50” for “was 2”, “was 250” for “was 10”, “diluted 10-fold” for “diluted 517-fold”
The test compounds dissolved in 100% DMSO at 20 mM were diluted with 100% DMSO to a concentration of 200 µM, which represents the 200× concentration of the highest compound concentration point in the reaction system. The compounds at this concentration were then subjected to 10-point 3-fold serial dilution with 100% DMSO. The positive control wells and negative control wells were set with 100% DMSO. […]

[2] = system: B cell activation in human whole blood; assay: Inhibition of B cell activation in human whole blood (CD69 expression, flow cytometry); assay type: cell-based; conditions: anti-human IgD 30 µg/ml + IL-4 5 ng/ml, 18 hours, CD69-positive CD19-positive B cells, read-out: IC50 values of inhibitory activity against B cell activation in human whole blood
From the text: Test example 2: Inhibitory activity of compounds of the present disclosure against B cell activation in human whole blood • I. Experimental materials and instruments • 1. Human whole blood (internal recruitment) • 2. Goat F(ab')2 anti-human IgD-UNLB (SouthernBiotech, 2032-01) • 3. DPBS (1x) (Gibco, 14190-144) • 4. Recombinant human IL-4 (Peprotech, 200-04) • 5. Brilliant Violet 421™ anti-human CD19 antibody (Biolegend, 302234) • 6. APC anti-human CD69 antibody (Biolegend, 310910) • 7. APC mouse IgG1, κ isotype control antibody (Biolegend, 400120) • 8. eBioscience™ 10X RBC lysis buffer (multi-species) (Thermo, 004300-54) • 9. NEST 96-well deep-well plate (Wuxi NEST Biotechnology Co., Ltd., 503501) • 10. 96-well round-bottom plate (Corning, 3788) • 11. 96-well flat-bottom plate (Corning, 3599) • 12. Attune™ NxT acoustic focusing cytometer (ThermoFisher Scientific, 4.2.0) • 13. Cell incubator (Thermo, Forma steri-cycle i160) • II. Experimental procedure
B cells express the B cell receptor (BCR) complex on their surface. When B cells in human whole blood are induced to activate, they can trigger the downstream signalling pathways of the receptor and express the activation marker CD69. The expression of CD69 in activated B cells was detected by flow cytometry, and the IC50 of the compounds were calculated to evaluate the effects of the compounds on BCR activation.
The test compounds dissolved in 100% DMSO at 20 mM were diluted with 100% DMSO to a concentration of 1 mM, which represents the 200× concentration of the highest compound concentration point in the reaction system. The compounds at this concentration were then subjected to 8-point 4-fold serial dilution with 100% DMSO. The positive control wells were set with 100% DMSO, whereas the negative control wells were set with Remiburtinib at a final concentration of 5 µM. The serially diluted compounds and 100% DMSO were further diluted 10-fold in PBS to achieve the 20× concentration, followed by thorough mixing.
After thorough mixing, the whole blood sample was transferred to a loading reservoir and then dispensed into a 96-well flat-bottom plate at 80 µl per well. The compound dilution was dispensed at 5 µl per well. The 11th column of each row was designated as the negative control well, with 5 µl of 100 µM positive control drug added to each well. After thorough mixing for 5 min, the plate was incubated in a 37°C incubator for 30 min. Human IgD antibody was diluted 1.67-fold with PBS to a concentration of 300 µg/mL, and 10 µl of the diluted solution was added to each well of the culture plate (final concentration: 30 µg/ml). Human IL-4 (stock solution at 50 µg/ml) was diluted 500-fold with PBS to a concentration of 100 ng/mL, and 5 µl of the diluted solution was added to each well of the culture plate (final concentration: 5 ng/ml). After thorough mixing for 5 min, the plate was cultured in a 37°C incubator with 5% CO2 for 18 hours.
Flow cytometry detection: CD69-APC, CD19-BV421 and CD4-APC antibodies, and the isotype control antibodies for CD69-APC were removed from 4°C storage. Each antibody was added at 1 µl per well. After thorough mixing for 5 min, the plate was incubated for 30 min at 4°C (refrigerator) in the dark for staining. The 10X RBC lysis buffer was diluted in water to prepare 1X RBC lysis buffer. Aliquots of 1 ml of the lysis buffer were dispensed into each well of a 96-well deep-well plate in advance. The stained samples were transferred into the deep-well plate containing the lysis buffer for erythrocyte lysis. After completing the transfer of an entire plate, the plate was incubated in the dark for 15-20 min. Upon completion of lysis, the plate was centrifuged at 2000 rpm for 4 min. Each well was washed with 1 ml of PBS. Subsequently, the cells were resuspended in 200 µl of PBS, transferred to a 96-well plate, and washed twice more using the same procedure. The samples were resuspended in 200 µl of PBS per well and then subjected to flow cytometry detection. […]

[3] = 2 nM BTK, 10 µM ATP, 0.5 hours preincubation at 25°C; read-out: IC50 values of inhibitory activity against BTK
[4] = read-out: IC50 values of inhibitory activity against BTK; 2 nM BTK, 10 µM ATP, 0.5 hours preincubation at 25°C

T1 sequence (Q06187 whole entry): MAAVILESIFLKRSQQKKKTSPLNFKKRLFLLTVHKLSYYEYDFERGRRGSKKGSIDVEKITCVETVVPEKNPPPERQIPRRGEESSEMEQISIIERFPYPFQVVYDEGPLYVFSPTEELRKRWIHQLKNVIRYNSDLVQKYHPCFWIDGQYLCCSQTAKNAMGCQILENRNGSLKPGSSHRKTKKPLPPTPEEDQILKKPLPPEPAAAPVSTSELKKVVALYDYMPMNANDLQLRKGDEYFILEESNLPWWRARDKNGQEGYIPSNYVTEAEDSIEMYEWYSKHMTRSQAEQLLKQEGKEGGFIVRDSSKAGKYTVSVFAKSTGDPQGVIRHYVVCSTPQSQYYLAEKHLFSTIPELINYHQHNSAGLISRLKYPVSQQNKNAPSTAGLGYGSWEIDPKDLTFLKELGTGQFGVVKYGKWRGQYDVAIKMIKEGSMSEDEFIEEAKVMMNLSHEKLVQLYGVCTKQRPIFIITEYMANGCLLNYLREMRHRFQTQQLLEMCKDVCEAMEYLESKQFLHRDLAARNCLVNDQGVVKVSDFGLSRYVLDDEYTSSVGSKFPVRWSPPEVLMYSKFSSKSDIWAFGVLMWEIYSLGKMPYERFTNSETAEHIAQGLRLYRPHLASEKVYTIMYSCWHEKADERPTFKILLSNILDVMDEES

SMILES	IC50 [1, 3] [nM]	IC50 [2] [nM]	IC50 [1, 4] [nM]
C=CC(=O)N1C[C@H](OC)C[C@H]1COc1c(N)ncnc1-c1cc(F)cc(NC(=O)c2ccc3c(c2F)OCC3(C)C)c1C [Example 33, N-(3-(5-(((2S,4R)-1-acryloyl-4-methoxypyrrolidin-2-yl)methoxy)-6-aminopyrimidin-4-yl)-5-fluoro-2-methylphenyl)-7-fluoro-3,3-dimethyl-2,3-dihydrobenzofuran-6-carboxamide]	1.25	–	–
C=CC(=O)N(C)CCOc1c(N)ncnc1-c1cc(F)cc(NC(=O)c2ccc(C3(C)CC3)cc2F)c1C [Example 2, N-(3-(6-amino-5-(2-(N-methacrylamido)ethoxy)pyrimidin-4-yl)-5-fluoro-2-methylphenyl)-2-fluoro-4-(1-methylcyclopropyl)benzamide]	–	10 to 100	–
[2H]C([2H])([2H])N(CCOc1c(N)ncnc1-c1cc(F)cc(NC(=O)c2ccc3c(c2F)OCC32CC2)c1C)C(=O)C=C [Example 18, N-(3-(6-amino-5-(2-(N-(methyl-d3)acrylamido)ethoxy)pyrimidin-4-yl)-5-fluoro-2-methylphenyl)-7-fluoro-2H-spiro[benzofuran-3,1'-cyclopropane]-6-carboxamide]	3.78	10 to 100	–
C=CC(=O)N(C)CCOc1c(N)ncnc1-c1cc(F)cc(NC(=O)c2ccc3c(c2F)OC(C)(C)C3)c1C [Example 4, N-(3-(6-amino-5-(2-(N-methacrylamido)ethoxy)pyrimidin-4-yl)-5-fluoro-2-methylphenyl)-7-fluoro-2,2-dimethyl-2,3-dihydrobenzofuran-6-carboxamide]	–	10 to 100	5.1
C=CC(=O)N(C)CCOc1c(N)ncnc1-c1cc(F)cc(NC(=O)c2ccc3c(c2F)OCC32CC2)c1C [Example 5, N-(3-(6-amino-5-(2-(N-methacrylamido)ethoxy)pyrimidin-4-yl)-5-fluoro-2-methylphenyl)-7-fluoro-2H-spiro[benzofuran-3,1'-cyclopropane]-6-carboxamide]	6.9	10 to 100	–
C=CC(=O)N(C)CCOc1c(N)ncnc1-c1cc(F)cc(NC(=O)c2sc3c(c2F)CC(C)(C)C3)c1C [Example 6, N-(3-(6-amino-5-(2-(N-methacrylamido)ethoxy)pyrimidin-4-yl)-5-fluoro-2-methylphenyl)-3-fluoro-5,5-dimethyl-5,6-dihydro-4H-cyclopenta[b]thiophene-2-carboxamide]	–	–	6.3
C=CC(=O)N(C)CCOc1c(N)ncnc1-c1cc(F)cc(NC(=O)c2cc3c(cc2F)C(C)(C)CC3)c1C [Example 12, N-(3-(6-amino-5-(2-(N-methacrylamido)ethoxy)pyrimidin-4-yl)-5-fluoro-2-methylphenyl)-6-fluoro-1,1-dimethyl-2,3-dihydro-1H-indene-5-carboxamide]	4	10 to 100	–
C=CC(=O)N(C)CCOc1c(N)ncnc1-c1cc(F)cc(NC(=O)c2sc3c(c2F)C2(CC3)CC2)c1C [Example 26-2, N-(3-(6-amino-5-(2-(N-methacrylamido)ethoxy)pyrimidin-4-yl)-5-fluoro-2-methylphenyl)-3-fluoro-5,6-dihydrospiro[cyclopenta[b]thiophene-4,1'-cyclopropane]-2-carboxamide]	–	–	6.15
C=CC(=O)N(C)CCOc1c(N)ncnc1-c1cc(F)cc(NC(=O)c2ccc3c(c2F)OC2(CC2)C3)c1C [Example 20]	–	10 to 100	–
[2H]C([2H])([2H])N(CCOc1c(N)ncnc1-c1cc(F)cc(NC(=O)c2cc3c(cc2F)C2(CC3)CC2)c1C)C(=O)C=C [Example 19, N-(3-(6-amino-5-(2-(N-(methyl-d3)acrylamido)ethoxy)pyrimidin-4-yl)-5-fluoro-2-methylphenyl)-6'-fluoro-2',3'-dihydrospiro[cyclopropane-1,1'-indene]-5'-carboxamide]	8.99	10 to 100	–
[2H]C([2H])([2H])N(CCOc1c(N)ncnc1-c1cc(F)cc(NC(=O)c2cc3c(cc2F)C2(CC2)CO3)c1C)C(=O)C=C [Example 17, N-(3-(6-amino-5-(2-(N-(methyl-d3)acrylamido)ethoxy)pyrimidin-4-yl)-5-fluoro-2-methylphenyl)-5-fluoro-2H-spiro[benzofuran-3,1'-cyclopropane]-6-carboxamide]	5.74	10 to 100	–
C=CC(=O)N(C)CCOc1c(N)ncnc1-c1cc(F)cc(NC(=O)c2cc3c(cc2F)C2(CC3)CC2)c1C [Example 1, N-(3-(6-amino-5-(2-(N-methacrylamido)ethoxy)pyrimidin-4-yl)-5-fluoro-2-methylphenyl)-6'-fluoro-2',3'-dihydrospiro[cyclopropane-1,1'-indene]-5'-carboxamide]	6.09	10 to 100	–
